Measurements taken from the supplement of paper PMC10307832.

How the values were obtained:
Assay in all cases: relative viability (nuclei count vs DMSO), 5 days (fraction); higher = more cells survive
Carboplatin + Navitoclax = compound: C1CC(C1)(C(=O)O)C(=O)O.[NH2-].[NH2-].[Pt+2] [Carboplatin] + CC1(C)CCC(c2ccc(Cl)cc2)=C(CN2CCN(c3ccc(C(=O)NS(=O)(=O)c4ccc(N[C@H](CCN5CCOCC5)CSc5ccccc5)c(S(=O)(=O)C(F)(F)F)c4)cc3)CC2)C1 [Navitoclax] (partner 0.5 µM)
In short: (§1)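 Values are medians from duplicate plates. Each reflects relative viability, defined as the nuclei count of treated wells over that of vehicle wells. Lung cancer cell lines in 1536-well plates were pin-tool dosed one day after seeding with one drug alone or with a fixed anchor-drug dose plus five library-drug doses (not always all listed) in √10 steps, then fixed, stained and imaged at 4× after 5 days.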

Carboplatin + Phenformin = compound: C1CC(C1)(C(=O)O)C(=O)O.[NH2-].[NH2-].[Pt+2] [Carboplatin] + N=C(N)NC(=N)NCCc1ccccc1 [Phenformin] (partner 250 µM)
In short: as §1

GSK126 + Trametinib = compound: CC[C@H](C)N1C=C(C2=C(C=C(C=C21)C3=CN=C(C=C3)N4CCNCC4)C(=O)NCC5=C(C=C(NC5=O)C)C)C [GSK126] + CC(=O)Nc1cccc(-n2c(=O)n(C3CC3)c(=O)c3c(Nc4ccc(I)cc4F)n(C)c(=O)c(C)c32)c1 [Trametinib] (partner 0.02 µM)
In short: as §1

GSK126 + Luminespib = compound: CC[C@H](C)N1C=C(C2=C(C=C(C=C21)C3=CN=C(C=C3)N4CCNCC4)C(=O)NCC5=C(C=C(NC5=O)C)C)C [GSK126] + CCNC(=O)c1noc(-c2cc(C(C)C)c(O)cc2O)c1-c1ccc(CN2CCOCC2)cc1 [Luminespib] (partner 0.01 µM)
In short: as §1

Cell Line	relative viability (Carboplatin + Navitoclax; first compound 0.08 µM)	relative viability (Carboplatin + Navitoclax; first compound 0.253 µM)	relative viability (Carboplatin + Navitoclax; first compound 0.8 µM)	relative viability (Carboplatin + Navitoclax; first compound 2.53 µM)	relative viability (Carboplatin + Navitoclax; first compound 8 µM)	relative viability (Carboplatin + Phenformin; first compound 0.08 µM)	relative viability (Carboplatin + Phenformin; first compound 0.253 µM)	relative viability (Carboplatin + Phenformin; first compound 0.8 µM)	relative viability (Carboplatin + Phenformin; first compound 2.53 µM)	relative viability (Carboplatin + Phenformin; first compound 8 µM)	relative viability (GSK126 + Trametinib; first compound 0.08 µM)	relative viability (GSK126 + Trametinib; first compound 0.253 µM)	relative viability (GSK126 + Trametinib; first compound 0.8 µM)	relative viability (GSK126 + Trametinib; first compound 2.53 µM)	relative viability (GSK126 + Trametinib; first compound 8 µM)	relative viability (GSK126 + Luminespib; first compound 0.08 µM)	relative viability (GSK126 + Luminespib; first compound 0.253 µM)	relative viability (GSK126 + Luminespib; first compound 0.8 µM)	relative viability (GSK126 + Luminespib; first compound 2.53 µM)	relative viability (GSK126 + Luminespib; first compound 8 µM)
NCI-H2009	1.12	1.08	1.09	1.04	0.733	0.519	0.47	0.444	0.433	0.42	0.332	0.233	0.286	0.348	0.321	1.1	1.01	0.968	1.06	1.09
NCI-H2405	0.869	0.862	0.639	0.629	0.62	0.455	0.379	0.369	0.38	0.383	0.817	0.587	0.611	0.614	0.636	0.946	0.74	0.711	0.695	0.604
SK-MES-1	1.13	1.3	1.2	1.21	1.16	0.681	0.672	0.671	0.638	0.592	0.573	0.6	0.539	0.491	0.515	0.856	0.76	0.823	0.866	0.908
NCI-H2170	0.679	0.594	0.633	0.588	0.508	0.429	0.446	0.402	0.38	0.41	1.05	0.964	0.893	0.891	1.03	0.655	0.924	0.595	0.546	0.722
NCI-H322M	1.26	1.22	1.18	1.13	1.05	0.884	0.738	0.775	0.74	0.712	0.499	0.478	0.482	0.548	0.552	0.822	0.845	0.85	0.978	0.834
NCI-H2085	1.25	1.09	1.09	1.05	1.09	0.88	0.741	0.695	0.737	0.775	0.614	0.658	0.554	0.569	0.568	0.52	0.514	0.414	0.406	0.623
PC-3 [JPC-3]	0.85	0.78	0.83	0.717	0.725	0.486	0.461	0.449	0.473	0.456	0.763	0.694	0.693	0.66	0.634	0.75	0.728	0.745	0.708	0.734
NCI-H1355	1.02	1.01	0.853	0.912	0.921	0.524	0.478	0.465	0.405	0.451	0.435	0.412	0.4	0.421	0.468	0.783	0.753	0.777	0.881	0.806
NCI-H1650	1.33	1.11	1.13	1.07	0.726	0.457	0.5	0.359	0.406	0.349	0.631	0.656	0.428	0.578	0.654	0.217	0.193	0.188	0.166	0.205
NCI-H838	1.22	1.08	1.16	1.11	1.06	0.707	0.587	0.603	0.601	0.603	0.58	0.51	0.437	0.477	0.483	0.39	0.319	0.357	0.302	0.34
NCI-H1755	1.02	1.01	1.04	1.02	0.891	0.65	0.618	0.623	0.604	0.576	0.771	0.736	0.777	0.826	0.793	0.435	0.519	0.58	0.381	0.501
NCI-H1651	0.973	1.13	0.982	0.904	0.538	0.386	0.335	0.288	0.272	0.218	0.794	0.86	0.811	0.844	0.866	0.966	0.948	0.766	0.732	0.817
LK-2	0.905	1.03	0.74	0.74	0.995	0.683	0.47	0.343	0.398	0.563	0.861	0.817	0.779	0.857	0.575	0.217	0.171	0.171	0.204	0.188
PC-14	0.991	0.974	0.985	0.918	0.566	0.807	0.592	0.53	0.383	0.274	0.912	0.694	0.708	0.662	0.699	0.163	0.144	0.174	0.155	0.114
ChaGo-K-1	1.17	1.01	0.944	0.798	0.53	0.459	0.508	0.467	0.381	0.392	0.902	0.986	0.888	0.947	0.983	0.602	0.675	0.556	0.769	0.397
